This passage reports relative viability results from the supplement of paper PMC10307832.

Common to all, as to assay: relative viability (nuclei count vs DMSO), 5 days (fraction); higher = more cells survive
Compound in the experiment “Temozolomide + OSI-027”: Cn1nnc2c(C(N)=O)ncn2c1=O [Temozolomide] + COc1cccc2cc(-c3nc([C@H]4CC[C@H](C(=O)O)CC4)n4ncnc(N)c34)[nH]c12 [OSI-027] (partner 0.5 µM)
The essentials:
(§1)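 Lung cancer cell lines were seeded in 1536-well plates and dosed by pin tool the next day, with either a single drug or a fixed anchor-drug dose combined with five library-drug doses (not always all listed) spaced in √10 steps. Five days later, one step fixed the cells and stained their nuclei (final 0.05% Triton X-100, 1% formaldehyde, 1 ug/ml Hoechst), and nuclei were counted on 4× images. Relative viability is the nuclei count in treated wells divided by the count in vehicle wells, and each value is the median of duplicate plates.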

Compound in the experiment “AZD5582 + Luminespib”: C[C@@H](C(=O)N[C@@H](C1CCCCC1)C(=O)N2CCC[C@H]2C(=O)N[C@@H]3[C@@H](CC4=CC=CC=C34)OCC#CC#CCO[C@@H]5CC6=CC=CC=C6[C@@H]5NC(=O)[C@@H]7CCCN7C(=O)[C@H](C8CCCCC8)NC(=O)[C@H](C)NC)NC [AZD5582] + CCNC(=O)c1noc(-c2cc(C(C)C)c(O)cc2O)c1-c1ccc(CN2CCOCC2)cc1 [Luminespib] (partner 0.01 µM)
The essentials: as §1

Compound in the experiment “AZD5582 + Pemetrexed”: C[C@@H](C(=O)N[C@@H](C1CCCCC1)C(=O)N2CCC[C@H]2C(=O)N[C@@H]3[C@@H](CC4=CC=CC=C34)OCC#CC#CCO[C@@H]5CC6=CC=CC=C6[C@@H]5NC(=O)[C@@H]7CCCN7C(=O)[C@H](C8CCCCC8)NC(=O)[C@H](C)NC)NC [AZD5582] + Nc1nc2[nH]cc(CCc3ccc(C(=O)N[C@@H](CCC(=O)O)C(=O)O)cc3)c2c(=O)[nH]1 [Pemetrexed] (partner 0.2 µM)
The method, boiled down: as §1

Compound in the experiment “AZD5582 + Crizotinib”: C[C@@H](C(=O)N[C@@H](C1CCCCC1)C(=O)N2CCC[C@H]2C(=O)N[C@@H]3[C@@H](CC4=CC=CC=C34)OCC#CC#CCO[C@@H]5CC6=CC=CC=C6[C@@H]5NC(=O)[C@@H]7CCCN7C(=O)[C@H](C8CCCCC8)NC(=O)[C@H](C)NC)NC [AZD5582] + C[C@@H](Oc1cc(-c2cnn(C3CCNCC3)c2)cnc1N)c1c(Cl)ccc(F)c1Cl [Crizotinib] (partner 1 µM)
The method, boiled down:
as §1

NCI-H1792: the relative viability with Temozolomide + OSI-027 (first compound 0.2 µM) came out at 0.552; in the experiment with Temozolomide + OSI-027 (first compound 0.6325 µM) it was 0.739; with Temozolomide + OSI-027 (first compound 2 µM) it was 0.689; in the experiment with Temozolomide + OSI-027 (first compound 6.325 µM), 0.681; with Temozolomide + OSI-027 (first compound 20 µM), 0.736; in the experiment with AZD5582 + Luminespib (first compound 0.005 µM), 0.594. Further, the relative viability with AZD5582 + Luminespib (first compound 0.01581 µM) was 0.496; with AZD5582 + Luminespib (first compound 0.05 µM), 0.579; with AZD5582 + Pemetrexed (first compound 0.001581 µM) it was 0.71; with AZD5582 + Pemetrexed (first compound 0.005 µM), 0.881; in the experiment with AZD5582 + Pemetrexed (first compound 0.01581 µM), 0.557; with AZD5582 + Pemetrexed (first compound 0.05 µM), 1.05. Further, the relative viability in the experiment with AZD5582 + Crizotinib (first compound 0.001581 µM) came to 0.903; with AZD5582 + Crizotinib (first compound 0.005 µM), 1.01; with AZD5582 + Crizotinib (first compound 0.01581 µM), 0.908; with AZD5582 + Crizotinib (first compound 0.05 µM) it was 1.08.
SK-LU-1: the relative viability in the experiment with Temozolomide + OSI-027 (first compound 0.2 µM) is 0.408; in the experiment with Temozolomide + OSI-027 (first compound 0.6325 µM) it was 0.341; with Temozolomide + OSI-027 (first compound 2 µM) it was 0.334; with Temozolomide + OSI-027 (first compound 6.325 µM) it was 0.24; in the experiment with Temozolomide + OSI-027 (first compound 20 µM), 0.272; in the experiment with AZD5582 + Luminespib (first compound 0.001581 µM) it was 0.191. The relative viability with AZD5582 + Luminespib (first compound 0.005 µM) worked out at 0.185; with AZD5582 + Luminespib (first compound 0.01581 µM), 0.194; with AZD5582 + Luminespib (first compound 0.05 µM), 0.177; in the experiment with AZD5582 + Pemetrexed (first compound 0.001581 µM), 0.73; with AZD5582 + Pemetrexed (first compound 0.005 µM), 0.5; with AZD5582 + Pemetrexed (first compound 0.01581 µM), 0.978. Also, the relative viability with AZD5582 + Pemetrexed (first compound 0.05 µM) was 0.285; with AZD5582 + Crizotinib (first compound 0.001581 µM) it was 0.365; in the experiment with AZD5582 + Crizotinib (first compound 0.005 µM) it was 0.272; with AZD5582 + Crizotinib (first compound 0.01581 µM) it was 0.91; with AZD5582 + Crizotinib (first compound 0.05 µM), 0.152.
Take NCI-H1437: the relative viability in the experiment with Temozolomide + OSI-027 (first compound 0.2 µM) was 0.863; with Temozolomide + OSI-027 (first compound 0.6325 µM), 0.877; in the experiment with Temozolomide + OSI-027 (first compound 2 µM) it was 0.952; with Temozolomide + OSI-027 (first compound 6.325 µM), 0.922; with Temozolomide + OSI-027 (first compound 20 µM) it was 0.906; in the experiment with AZD5582 + Luminespib (first compound 0.001581 µM), 1.11. For the same cell line, the relative viability with AZD5582 + Luminespib (first compound 0.005 µM) came out at 0.986; with AZD5582 + Luminespib (first compound 0.01581 µM), 1.12; in the experiment with AZD5582 + Luminespib (first compound 0.05 µM) it was 1.14; in the experiment with AZD5582 + Pemetrexed (first compound 0.001581 µM), 0.337; with AZD5582 + Pemetrexed (first compound 0.005 µM), 0.294; with AZD5582 + Pemetrexed (first compound 0.01581 µM), 0.263. Also, the relative viability in the experiment with AZD5582 + Pemetrexed (first compound 0.05 µM) worked out at 0.326; with AZD5582 + Crizotinib (first compound 0.001581 µM), 0.856; in the experiment with AZD5582 + Crizotinib (first compound 0.005 µM), 0.713; with AZD5582 + Crizotinib (first compound 0.01581 µM), 0.858; with AZD5582 + Crizotinib (first compound 0.05 µM), 0.957.
In the case of LCLC-103H, the relative viability worked out at 0.454 with Temozolomide + OSI-027 (first compound 0.2 µM); 0.416 with Temozolomide + OSI-027 (first compound 0.6325 µM); 0.481 in the experiment with Temozolomide + OSI-027 (first compound 2 µM); 0.448 in the experiment with Temozolomide + OSI-027 (first compound 6.325 µM); 0.485 in the experiment with Temozolomide + OSI-027 (first compound 20 µM); 0.877 with AZD5582 + Luminespib (first compound 0.001581 µM). Also, the relative viability with AZD5582 + Luminespib (first compound 0.005 µM) came out at 0.943; in the experiment with AZD5582 + Luminespib (first compound 0.01581 µM), 0.896; in the experiment with AZD5582 + Luminespib (first compound 0.05 µM) it was 0.886; with AZD5582 + Pemetrexed (first compound 0.001581 µM) it was 0.386; with AZD5582 + Pemetrexed (first compound 0.005 µM) it was 0.426; with AZD5582 + Pemetrexed (first compound 0.01581 µM), 0.443. In addition, the relative viability in the experiment with AZD5582 + Pemetrexed (first compound 0.05 µM) was determined as 0.352; with AZD5582 + Crizotinib (first compound 0.001581 µM), 1.1; with AZD5582 + Crizotinib (first compound 0.005 µM), 1.08; with AZD5582 + Crizotinib (first compound 0.01581 µM) it was 1.02; with AZD5582 + Crizotinib (first compound 0.05 µM), 0.777.
For the cell line NCI-H647, the relative viability came to 0.676 with Temozolomide + OSI-027 (first compound 0.2 µM); 0.661 in the experiment with Temozolomide + OSI-027 (first compound 0.6325 µM); 0.776 with Temozolomide + OSI-027 (first compound 2 µM); 0.431 with Temozolomide + OSI-027 (first compound 6.325 µM); 0.185 with Temozolomide + OSI-027 (first compound 20 µM); 0.145 with AZD5582 + Luminespib (first compound 0.001581 µM). For the same cell line, the relative viability with AZD5582 + Luminespib (first compound 0.005 µM) is 0.149; with AZD5582 + Luminespib (first compound 0.01581 µM), 0.171; with AZD5582 + Luminespib (first compound 0.05 µM), 0.107; with AZD5582 + Pemetrexed (first compound 0.001581 µM) it was 0.126; with AZD5582 + Pemetrexed (first compound 0.005 µM), 0.14; with AZD5582 + Pemetrexed (first compound 0.01581 µM), 0.193. For the same cell line, the relative viability with AZD5582 + Pemetrexed (first compound 0.05 µM) was found to be 0.124; with AZD5582 + Crizotinib (first compound 0.001581 µM), 0.809; with AZD5582 + Crizotinib (first compound 0.005 µM) it was 0.732; with AZD5582 + Crizotinib (first compound 0.01581 µM) it was 1.02; with AZD5582 + Crizotinib (first compound 0.05 µM), 0.327.
On to LC-2-ad, for which the relative viability was found to be 0.782 with Temozolomide + OSI-027 (first compound 0.2 µM); 0.917 with Temozolomide + OSI-027 (first compound 0.6325 µM); 0.926 in the experiment with Temozolomide + OSI-027 (first compound 2 µM); 0.825 with Temozolomide + OSI-027 (first compound 6.325 µM); 0.737 with Temozolomide + OSI-027 (first compound 20 µM); 1.1 in the experiment with AZD5582 + Luminespib (first compound 0.001581 µM). Also, the relative viability with AZD5582 + Luminespib (first compound 0.005 µM) was determined as 1.03; in the experiment with AZD5582 + Luminespib (first compound 0.01581 µM) it was 0.942; with AZD5582 + Luminespib (first compound 0.05 µM), 0.901; with AZD5582 + Pemetrexed (first compound 0.001581 µM) it was 0.283; with AZD5582 + Pemetrexed (first compound 0.005 µM), 0.272; with AZD5582 + Pemetrexed (first compound 0.01581 µM) it was 0.28. Besides, the relative viability with AZD5582 + Pemetrexed (first compound 0.05 µM) came to 0.278; with AZD5582 + Crizotinib (first compound 0.001581 µM) it was 0.457; in the experiment with AZD5582 + Crizotinib (first compound 0.005 µM), 0.454; with AZD5582 + Crizotinib (first compound 0.01581 µM) it was 0.384; with AZD5582 + Crizotinib (first compound 0.05 µM), 0.391.
Consider NCI-H2087, for which the relative viability was 0.628 with Temozolomide + OSI-027 (first compound 0.2 µM); 0.565 with Temozolomide + OSI-027 (first compound 0.6325 µM); 0.634 in the experiment with Temozolomide + OSI-027 (first compound 2 µM); 0.464 with Temozolomide + OSI-027 (first compound 6.325 µM); 0.612 with Temozolomide + OSI-027 (first compound 20 µM); 0.171 with AZD5582 + Luminespib (first compound 0.001581 µM). The relative viability with AZD5582 + Luminespib (first compound 0.005 µM) came out at 0.135; in the experiment with AZD5582 + Luminespib (first compound 0.01581 µM), 0.176; with AZD5582 + Luminespib (first compound 0.05 µM), 0.148; with AZD5582 + Pemetrexed (first compound 0.001581 µM), 0.656; with AZD5582 + Pemetrexed (first compound 0.005 µM) it was 0.665; with AZD5582 + Pemetrexed (first compound 0.01581 µM), 0.662. Moreover, the relative viability was 0.656 with AZD5582 + Pemetrexed (first compound 0.05 µM); 0.689 with AZD5582 + Crizotinib (first compound 0.001581 µM); 0.911 with AZD5582 + Crizotinib (first compound 0.005 µM); 0.692 with AZD5582 + Crizotinib (first compound 0.01581 µM); 0.937 in the experiment with AZD5582 + Crizotinib (first compound 0.05 µM).
Regarding NCI-H1944, the relative viability turned out to be 0.428 with Temozolomide + OSI-027 (first compound 0.2 µM); 0.378 with Temozolomide + OSI-027 (first compound 0.6325 µM); 0.474 with Temozolomide + OSI-027 (first compound 2 µM); 0.377 with Temozolomide + OSI-027 (first compound 6.325 µM); 0.382 with Temozolomide + OSI-027 (first compound 20 µM); 0.64 with AZD5582 + Luminespib (first compound 0.001581 µM). The relative viability with AZD5582 + Luminespib (first compound 0.005 µM) is 0.714; with AZD5582 + Luminespib (first compound 0.01581 µM) it was 0.757; with AZD5582 + Luminespib (first compound 0.05 µM) it was 0.802; with AZD5582 + Pemetrexed (first compound 0.001581 µM), 0.455; with AZD5582 + Pemetrexed (first compound 0.005 µM) it was 0.556; with AZD5582 + Pemetrexed (first compound 0.01581 µM), 0.521. Also, the relative viability in the experiment with AZD5582 + Pemetrexed (first compound 0.05 µM) was determined as 0.62; in the experiment with AZD5582 + Crizotinib (first compound 0.001581 µM), 0.914; with AZD5582 + Crizotinib (first compound 0.005 µM), 1.07; with AZD5582 + Crizotinib (first compound 0.01581 µM), 1.09; with AZD5582 + Crizotinib (first compound 0.05 µM) it was 1.07.
